# In PubChem BioAssay AID1963834 (Molecular Pharmacology Branch, DTP, NCI, 2024):
# Test system: 873145-292-R-J1-PDC complex spheroid viability
# Experiment: Anticancer human tumor 873145-292-R-J1-PDC patient-derived renal clear cell carcinoma cell line growth inhibition [POLQ]
# Conditions: for IC50: curve of first compound; for viability, T/C: stronger effect = lower value
# Description: Multicellular complex tumor spheroid response to Polymerase (POL) inhibitors (novobiocin, ART-558, RP6685) in combination with a variety of drugs and investigational agents in selected tumor cell lines
# The POL inhibitors (novobiocin, ART-558, and RP6685) were evaluated both individually and in combination with standard of care and investigational anticancer small molecules within a complex spheroid model of solid tumors. . Complex spheroids include a stromal component modeled by human endothelial cells (HUVEC) and fibroblasts modeled by human mesenchymal stem cells (MSCs). The concentration ranges selected for each drug and investigational agent were based upon clinically achievable concentrations if the clinical Cmax of the agent was known.
# Compounds. The drugs and investigational agents: novobiocin (NSC847541), ART-558 (NSC835418), RP-6685 (NSC848927), peposertib (NSC802822), ceralasertib (NSC780249), elimusertib (NSC800525), camonsertib (NSC841442), AZD-1390 (NSC803789), olaparib (NSC753686), talazoparib (NSC767125), rucaparib (NSC756644), sotorasib (NSC818433), MRTX-1133 (NSC836407), SN-38 (NSC673596), topotecan (NSC609699), epotoside (NSC141540), doxorubicin (NSC123127), gemcitabine (NSC613327), 5-fluorouracil (NSC19893), paclitaxel (NSC125973), vemurafenib (NSC761431), MSA-2 (NSC828583), SN-011 (NSC837082), adavosertib (NSC754352), prexasertib (NSC758257), carboplatin (NSC241240) and oxaliplatin (NSC266046), were obtained from the National Cancer Institute (NCI) Developmental Therapeutics Program Chemical Repository (21). The FDA-approved anticancer drug set is available from the Developmental Therapeutics Program at https://dtp.cancer.gov/organization/dscb/obtaining/. […] The stock solutions were prepared in dimethyl sulfoxide (DMSO, Sigma-Aldrich, St. Louis, MO, cat. D2650), except for the platinum compounds which were prepared in saline (Quality Biological, Gaithersburg, MD, cat. 114-055-101), at 800-fold the tested concentration and stored at -70 degrees C prior to their use. All drugs and investigational agents were tested over a range starting from a high concentration at or near the clinical Cmax and decreasing in half-log increments. If the clinical Cmax for an agent had not been determined, the highest concentration tested was 10 microM, except for SN-38, which was tested at a high concentration of 1 microM.
# Cell Culture. All cells were maintained in an incubator at 37 degrees C and 5% CO2 with 95% humidity. The PDC lines were cultured according to standard operating procedures established by the NCI PDMR (https://pdmr.cancer.gov). Table 3 of the manuscript, lists the cell lines along with the number of the three cell types plated to form the mct-spheroids and media for tumor cell growth. After thawing, all PDC lines, except 997537-175-T-J1-PDC and 415267-285-R-J2-PDC, were cultured in Matrigel-coated flasks prepared with a working solution of 1X Ham's F-12 nutrient mix, without supplementation (Thermo Fisher Scientific, cat. 11765054), 100 U/mL penicillin-streptomycin (Thermo Fisher Scientific, cat. 15140122), and 2.5% Matrigel (Corning Inc., Corning, NY, cat. 354248) for the first three passages. The two PDC lines 997537-175-T-J1-PDC and 415267-285-R-J2-PDC were cultured on uncoated flasks. The 857933-349-R-J2-PDC line was cultured in 6C/Colon 1B media containing advanced DMEM/F-12 (Thermo Fisher Scientific, cat. 12634028), 10 mM HEPES (Thermo Fisher Scientific, cat. 15630080), 1X GlutaMAX supplement (Thermo Fisher Scientific, cat. 35050061), 0.1 mg/mL primocin (InvivoGen, San Diego, CA, cat. ant-pm-2), 10% defined fetal bovine serum, heat inactivated (HyClone Laboratories Inc., Logan, UT, cat. SH30070.03HI), 50% L-WRN conditioned media (ATCC, cat. CRL-3276), 1.25 mM N-Acetyl-L-cysteine (Sigma-Aldrich, cat. A9165), 10 mM nicotinamide (Sigma-Aldrich, cat. N0636), 1X B-27 supplement (Thermo Fisher Scientific, cat. 17504044), 1X N-2 supplement (Thermo Fisher Scientific, cat. […]
# 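Also: spheroids exposed to compounds for 7 days before viability readout.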
# 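For viability, T/C in this document: luminescence signal used as surrogate for viable cell content; 100% = DMSO vehicle control viability.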
structure (smiles),measurement,setting,value
O=c1[nH]cc(F)c(=O)[nH]1 + COC1C(OC(N)=O)C(O)C(Oc2ccc3c(O)c(NC(=O)c4ccc(O)c(CC=C(C)C)c4)c(=O)oc3c2C)OC1(C)C,IC50,second compound 0.0316 µM,> 10 µM
same,IC50,second compound 0.1 µM,> 10 µM
same,IC50,second compound 0.316 µM,> 10 µM
same,IC50,second compound 1 µM,> 10 µM
same,IC50,second compound 3.16 µM,> 10 µM
same,IC50,second compound 10 µM,> 10 µM
same,"viability, T/C","second compound 0.0316 µM, first compound 0.0316 µM",100%
same,"viability, T/C","second compound 0.0316 µM, first compound 0.1 µM",92.8%
same,"viability, T/C","second compound 0.0316 µM, first compound 0.316 µM",90.8%
same,"viability, T/C","second compound 0.0316 µM, first compound 1 µM",110%
same,"viability, T/C","second compound 0.0316 µM, first compound 3.16 µM",87.9%
same,"viability, T/C","second compound 0.0316 µM, first compound 10 µM",96.8%
same,"viability, T/C","second compound 0.1 µM, first compound 0.0316 µM",105%
same,"viability, T/C","second compound 0.1 µM, first compound 0.1 µM",103%
same,"viability, T/C","second compound 0.1 µM, first compound 0.316 µM",85.2%
same,"viability, T/C","second compound 0.1 µM, first compound 1 µM",95.4%
same,"viability, T/C","second compound 0.1 µM, first compound 3.16 µM",89.2%
same,"viability, T/C","second compound 0.1 µM, first compound 10 µM",89.1%
same,"viability, T/C","second compound 0.316 µM, first compound 0.0316 µM",101%
same,"viability, T/C","second compound 0.316 µM, first compound 0.1 µM",90%
same,"viability, T/C","second compound 0.316 µM, first compound 0.316 µM",87.1%
same,"viability, T/C","second compound 0.316 µM, first compound 1 µM",87.4%
same,"viability, T/C","second compound 0.316 µM, first compound 3.16 µM",109%
same,"viability, T/C","second compound 0.316 µM, first compound 10 µM",91.3%
same,"viability, T/C","second compound 1 µM, first compound 0.0316 µM",88.9%
same,"viability, T/C","second compound 1 µM, first compound 0.1 µM",89.8%
same,"viability, T/C","second compound 1 µM, first compound 0.316 µM",86.2%
same,"viability, T/C","second compound 1 µM, first compound 1 µM",87.7%
same,"viability, T/C","second compound 1 µM, first compound 3.16 µM",100%
same,"viability, T/C","second compound 1 µM, first compound 10 µM",88.5%
same,"viability, T/C","second compound 3.16 µM, first compound 0.0316 µM",95%
same,"viability, T/C","second compound 3.16 µM, first compound 0.1 µM",95.5%
same,"viability, T/C","second compound 3.16 µM, first compound 0.316 µM",90.2%
same,"viability, T/C","second compound 3.16 µM, first compound 1 µM",92.3%
same,"viability, T/C","second compound 3.16 µM, first compound 3.16 µM",101%
same,"viability, T/C","second compound 3.16 µM, first compound 10 µM",91.3%
same,"viability, T/C","second compound 10 µM, first compound 0.0316 µM",91.3%
same,"viability, T/C","second compound 10 µM, first compound 0.1 µM",91.3%
same,"viability, T/C","second compound 10 µM, first compound 0.316 µM",92.5%
same,"viability, T/C","second compound 10 µM, first compound 1 µM",96.3%
same,"viability, T/C","second compound 10 µM, first compound 3.16 µM",93.1%
same,"viability, T/C","second compound 10 µM, first compound 10 µM",89.9%
